Reference: paper PMC4701221, “Novel Promising Estrogenic Receptor Modulators: Cytotoxic and Estrogenic Activity of Benzanilides and Dithiobenzanilides” (PLoS ONE, 2016)

Key:
A549 cells = experiment: MTT assay, A549; format: cell-based; settings: Homo sapiens, 72 h, lung adenocarcinoma, read-out: Cytotoxic activity IC50, A549
Procedure: The cell lines used in the cytotoxicity study, besides MCF-12A, were purchased from European Collection of Cell Culture (ECACC, Salisbury, UK): HEK293 (human embryonic kidney, ATTC no. CRL-1573), A549 (Human lung carcinoma, ECACC no. 86012804), CCD39Lu (Human lung fibroblasts, ECACC no. 90110512), MCF-7 (Human breast adenocarcinoma, ECACC no. 86012803) and MDA-MB-231 (Human breast adenocarcinoma ECACC no. 92020424). Cell lines were cultured in DMEM medium without phenol red and supplemented with 10% (v/v) FBS, 1% penicillin-streptomycin and 1% L-glutamine. MCF-12A (ATTC no. […]) was purchased from American Type Culture Collection (ATCC Manassas, VA 20110 USA). MCF-12A cells were kept in 1:1 mixture of Dulbecco’s modified Eagle’s medium and Ham’s F12 medium, 20 ng/ml human epidermal growth factor, 100 ng/ml cholera toxin, 0.01 mg/ml bovine insulin, 500 ng/ml hydrocortisone and 5% horse serum. All cell lines were cultured at 37°C, in a humidified atmosphere containing 5% CO2.
Compounds were dissolved in DMSO to the final concentration of […]. A549, CCD39Lu, MCF-7, MDA-MB-231 and MCF-12A cells were seeded in 96 wells plates at density 2x10^4 cells/well and incubated overnight as described above. Subsequently, cells were treated with tested compounds at concentrations: 100 μM; 50 μM; 25μM; 12.5μM; 6 μM; 3 μM; 1.5 μM. […] Cells were incubated 72 h at 37°C in a humidified atmosphere containing 5% CO2 in the cell culture media appropriate for each cell line. Then, the medium was aspirated and 170 μl MTT solution (5mg/ml) was added to each well. Plates were incubated for 2 hours at 37°C, and then plates were centrifuged at 1200 rpm for 3 minutes. The formazan crystals were dissolved in 200 μl DMSO and plates were further agitated on a plate shaker at 300–500 rpm for 10 minutes. Absorbance at 570 nm (with reference wavelenght 650 nm) was measured using a plate reader (Biotek Instruments, Elx-800). Cell viability was calculated as a percentage relative to the control.

ERα W383A = biological target: T1, ERα W383A (Homo sapiens, UniProt P03372, W383A); experiment: Estrogen Receptor luciferase assay in HEK293 cells transfected with ERα W383A; format: cell-based; settings: HEK293, Fig 6A
T1 construct: expressed in transfected cells; host or cells: HEK293
T1 sequence (P03372 1-595 W383A): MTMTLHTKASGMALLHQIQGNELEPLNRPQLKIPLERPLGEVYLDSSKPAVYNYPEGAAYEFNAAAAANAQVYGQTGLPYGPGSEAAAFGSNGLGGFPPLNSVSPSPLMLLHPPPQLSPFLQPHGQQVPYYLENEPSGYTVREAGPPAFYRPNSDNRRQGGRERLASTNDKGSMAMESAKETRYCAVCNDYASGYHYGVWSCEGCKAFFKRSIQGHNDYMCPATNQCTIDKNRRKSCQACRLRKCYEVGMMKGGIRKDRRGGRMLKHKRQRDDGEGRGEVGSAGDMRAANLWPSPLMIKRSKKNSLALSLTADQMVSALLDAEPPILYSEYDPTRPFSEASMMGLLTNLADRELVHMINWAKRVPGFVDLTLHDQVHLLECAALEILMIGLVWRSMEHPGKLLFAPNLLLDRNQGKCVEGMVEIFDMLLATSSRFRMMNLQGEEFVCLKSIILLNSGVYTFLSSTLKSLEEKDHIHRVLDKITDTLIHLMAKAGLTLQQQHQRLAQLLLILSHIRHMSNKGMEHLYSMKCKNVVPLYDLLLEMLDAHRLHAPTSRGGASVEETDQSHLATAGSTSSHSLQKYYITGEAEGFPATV
From the text: To obtain a eukaryotic vector expressing only the ER-α nuclear receptor, a construct was designed by cloning a KpnI-BamHI fragment from plasmid pEGFP-C1-ERα containing the ERα coding sequence that includes a stop signal into the pEGFP-N3 plasmid (Clontech Laboratories, Palo Alto, CA) under the control of the CMV promoter. […] For mock transfections, pEGFP-N3 plasmid was digested with BglII and NotI and religated after polishing DNA ends to remove GFP coding sequence. Plasmid sequence was confirmed by automatic sequencing. Prior to transfection, cells were seeded in 48 well plates at density of 1.5 x 10^4 cells/well and incubated for 24 h to reach a cell confluence of 80–90%. […] MCF-7 cells, which endogenously express ERα receptor, were transfected with p3xERRE/ERE-luciferase plus the pRLTK Renilla luciferase control plasmid (95:5). Firefly and Renilla luciferase activities were measured using the Dual Luciferase Assay System (Promega, Madison, WI, USA), following a standard protocol using a Sirius L luminometer (Berthold Technologies, Bad Wildbad, Germany). Data were expressed as relative changes in luciferase activity and normalized to 100%.
Plasmids for the expression of the ERα W383A and ER-α W383S mutated receptors were constructed by the quick change site directed mutagenesis method using plasmid pEGFP-N-ERα as template.

MCF-7 cells = experiment: LDH release assay, MCF-7; format: cell-based, human; settings: 72 h, Fig 2
Procedure: (§1) Cytotoxicity was evaluated by measuring the cell membrane permeability, using a LDH assay kit purchased from Cayman Chemical (Ann Arbor USA). The LDH assay was performed for MCF-7 and MDA-MB-231 cells (seeded at 2×10^4 density). As a positive control cell permeabilization with 1%Triton X-100 was used. The assay was performed 72h after start the incubation. Briefly, the plates were centrifuged at 400 ×g for 5 minutes, and 100 μL of supernatant were transferred from each well to the new 96-well plate and analyzed according to the manufacturer’s protocol. 100 μL of reaction mixture, containing lactic acid, NAD^+, tetrazolium salt and diaphorase, was added to each well. Plates were incubated on an orbital shaker for 30 minutes at room temperature and the absorbance at 490 nm was measured with a plate reader (Biotek Instruments, Elx-800). Results were expressed as a percentage of the total value of the positive control.

MDA-MB-231 cells = experiment: LDH release assay, MDA-MB-231; format: cell-based, human; settings: 72 h, Fig 2
Procedure: as §1

Fc1ccc(NC(=S)c2ccc(NC(=S)c3ccc(F)cc3)cc2)cc1 [Compound 18]
IC50 (A549 cells): > 100 µM
Activation of ER dependent transcription, ERα W383A vs wild type (ERα W383A): less active
LDH release, MCF-7 (MCF-7 cells): relatively low increase
LDH release, MDA-MB-231 (MDA-MB-231 cells): non-significant effects
